From ChEMBL document CHEMBL5385866, “Switch type I to type II TRK inhibitors for combating clinical resistance induced by xDFG mutation for cancer therapy” (Eur J Med Chem, 2023) come the findings set out here.

The structures appear in SMILES notation.

Assay [1] has as its system BaF3. The experiment in a line: cells. As to conditions: Mus musculus, BaF3, 72 h.
Description: Antiproliferative activity against mouse BaF3 cells harbouring CD74-TRKA assessed as inhibition of cell growth incubated for 72 hrs by CCK8 assay
Assay [2] has as its system BaF3. Kind of assay: cells. The conditions noted are these: Mus musculus, BaF3, 72 h. This is another data set of the same source.
Description: Antiproliferative activity against mouse BaF3 cells harbouring ETV6-TRKB assessed as inhibition of cell growth incubated for 72 hrs by CCK8 assay
The subject of assay [3] is BaF3. The experiment in a line: cells. The conditions noted are these: Mus musculus, BaF3, 72 h. The source holds these as a separate data set.
Description: Antiproliferative activity against mouse BaF3 cells harbouring ETV6-TRKC assessed as inhibition of cell growth incubated for 72 hrs by CCK8 assay
The test system of assay [4] is BaF3. Kind of assay: Induction of apoptosis in mouse BaF3 cells harboring CD74-TRKA G667C mutant assessed as viable cells at 50 nM incubated 48 hrs by Annexin V-FITC/7-AAD staining based flow cytometric analysis (reference value: 89.60%). The conditions noted are these: read-out: Activity. The class given is functional. (In general: A flow cytometer gives signals particle by particle.)

Assay [5] deals with High affinity nerve growth factor receptor (Homo sapiens, UniProt P04629, G667C). The experiment in a line: Inhibition of TRKA G667C mutant (unknown origin) using […] peptide as substrate incubated for 1 hr in presence of ATP by FRET based Z'-lyte assay.
High affinity nerve growth factor receptor (Homo sapiens, UniProt P04629, G667C), sequence (P04629 33-796 G667C limits assumed): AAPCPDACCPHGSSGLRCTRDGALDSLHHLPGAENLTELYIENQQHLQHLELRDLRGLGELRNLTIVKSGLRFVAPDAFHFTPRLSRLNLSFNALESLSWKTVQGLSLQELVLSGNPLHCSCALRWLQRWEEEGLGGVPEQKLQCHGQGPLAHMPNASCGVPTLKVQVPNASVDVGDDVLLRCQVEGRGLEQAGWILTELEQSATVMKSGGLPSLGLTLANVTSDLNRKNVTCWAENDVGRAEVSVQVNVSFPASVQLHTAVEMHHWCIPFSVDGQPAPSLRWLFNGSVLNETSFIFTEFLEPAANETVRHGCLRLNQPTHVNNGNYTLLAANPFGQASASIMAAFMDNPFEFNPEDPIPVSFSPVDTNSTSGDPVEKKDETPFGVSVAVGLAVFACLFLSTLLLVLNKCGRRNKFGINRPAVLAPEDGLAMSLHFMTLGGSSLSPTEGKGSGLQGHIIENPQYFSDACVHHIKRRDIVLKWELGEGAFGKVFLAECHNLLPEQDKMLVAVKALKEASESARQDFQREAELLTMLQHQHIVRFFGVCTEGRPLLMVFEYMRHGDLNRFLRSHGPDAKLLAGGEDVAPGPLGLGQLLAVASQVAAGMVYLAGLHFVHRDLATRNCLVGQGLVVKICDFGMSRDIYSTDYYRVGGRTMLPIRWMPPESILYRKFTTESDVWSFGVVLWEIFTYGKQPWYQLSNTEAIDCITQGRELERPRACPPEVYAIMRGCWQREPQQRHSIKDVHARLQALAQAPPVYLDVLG
For assay [6], the system named is BaF3. Kind of assay: Induction of apoptosis in mouse BaF3 cells harboring CD74-TRKA assessed as viable cells at 500 nM incubated 48 hrs by Annexin V-FITC/7-AAD staining based flow cytometric analysis (reference value: 89.30%). The class given is functional. The conditions noted are these: read-out: Activity.
For assay [7], the target named is Vascular endothelial growth factor receptor 2 (Homo sapiens, UniProt P35968). Kind of assay: Inhibition of VEGFR2 (unknown origin).
Assay [8] relates to BaF3. The experiment in a line: Induction of apoptosis in mouse BaF3 cells harboring CD74-TRKA G667C mutant assessed as viable cells at 10 nM incubated 48 hrs by Annexin V-FITC/7-AAD staining based flow cytometric analysis (reference value: 89.60%). The class given is functional. The conditions noted are these: read-out: Activity.
Assay [9] concerns BaF3. The experiment in a line: Induction of apoptosis in mouse BaF3 cells harboring CD74-TRKA assessed as viable cells at 100 nM incubated 48 hrs by Annexin V-FITC/7-AAD staining based flow cytometric analysis (reference value: 89.30%). The conditions noted are these: read-out: Activity. In kind it is functional.
Assay [10] deals with Proto-oncogene tyrosine-protein kinase receptor Ret (Homo sapiens, UniProt P07949). The experiment in a line: Inhibition of RET (unknown origin).
Proto-oncogene tyrosine-protein kinase receptor Ret, sequence (P07949 whole entry): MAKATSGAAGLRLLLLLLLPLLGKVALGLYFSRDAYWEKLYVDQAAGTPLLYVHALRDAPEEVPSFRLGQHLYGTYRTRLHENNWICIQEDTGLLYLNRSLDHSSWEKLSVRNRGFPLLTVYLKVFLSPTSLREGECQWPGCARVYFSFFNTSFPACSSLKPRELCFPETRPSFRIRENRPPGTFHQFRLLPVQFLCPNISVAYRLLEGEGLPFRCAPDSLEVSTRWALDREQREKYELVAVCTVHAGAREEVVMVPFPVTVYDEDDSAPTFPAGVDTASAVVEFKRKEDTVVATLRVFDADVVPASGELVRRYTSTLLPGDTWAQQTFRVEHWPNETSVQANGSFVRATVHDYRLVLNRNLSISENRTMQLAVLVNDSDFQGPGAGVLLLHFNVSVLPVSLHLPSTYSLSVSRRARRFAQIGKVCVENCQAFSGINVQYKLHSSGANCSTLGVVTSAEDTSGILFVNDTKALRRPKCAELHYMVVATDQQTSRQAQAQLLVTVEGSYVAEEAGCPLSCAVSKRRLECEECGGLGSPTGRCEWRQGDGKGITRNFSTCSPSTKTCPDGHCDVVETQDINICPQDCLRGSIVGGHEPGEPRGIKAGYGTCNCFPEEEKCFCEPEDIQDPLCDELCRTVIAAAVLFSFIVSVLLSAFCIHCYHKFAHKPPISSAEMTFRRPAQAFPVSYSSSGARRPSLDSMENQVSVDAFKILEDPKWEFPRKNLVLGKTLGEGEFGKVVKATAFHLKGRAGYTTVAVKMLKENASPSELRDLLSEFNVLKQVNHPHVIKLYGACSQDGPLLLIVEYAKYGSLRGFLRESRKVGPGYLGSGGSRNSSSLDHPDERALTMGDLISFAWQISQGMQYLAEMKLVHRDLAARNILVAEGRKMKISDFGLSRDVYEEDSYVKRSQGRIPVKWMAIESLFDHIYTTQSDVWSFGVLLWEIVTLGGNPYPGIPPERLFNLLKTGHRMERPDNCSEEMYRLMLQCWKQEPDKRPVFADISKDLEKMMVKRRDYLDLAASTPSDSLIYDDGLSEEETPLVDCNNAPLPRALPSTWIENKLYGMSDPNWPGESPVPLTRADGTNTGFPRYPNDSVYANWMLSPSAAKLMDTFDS
Assay [11] has as its system BaF3. Kind of assay: Induction of apoptosis in mouse BaF3 cells harboring CD74-TRKA G667C mutant assessed as viable cells at 2 nM incubated 48 hrs by Annexin V-FITC/7-AAD staining based flow cytometric analysis (reference value: 89.60%). As to conditions: read-out: Activity. In kind it is functional.
For assay [12], the system named is BaF3. The experiment in a line: Induction of apoptosis in mouse BaF3 cells harboring CD74-TRKA assessed as viable cells at 20 nM incubated 48 hrs by Annexin V-FITC/7-AAD staining based flow cytometric analysis (reference value: 89.30%). As to conditions: read-out: Activity. The class given is functional.
Assay [13] concerns the target High affinity nerve growth factor receptor (Homo sapiens, UniProt P04629). Kind of assay: Inhibition of TRKA (unknown origin) using […] peptide as substrate incubated for 1 hr in presence of ATP by FRET based Z'-lyte assay.
The subject of assay [14] is BaF3. Kind of assay: Induction of apoptosis in mouse BaF3 cells harboring CD74-TRKA assessed as viable cells at 4 nM incubated 48 hrs by Annexin V-FITC/7-AAD staining based flow cytometric analysis (reference value: 89.30%). In kind it is functional. As to conditions: read-out: Activity.
The target in assay [15] is T1, Receptor-type tyrosine-protein kinase FLT3 (Homo sapiens, UniProt P36888).
T1 sequence (P36888 whole entry): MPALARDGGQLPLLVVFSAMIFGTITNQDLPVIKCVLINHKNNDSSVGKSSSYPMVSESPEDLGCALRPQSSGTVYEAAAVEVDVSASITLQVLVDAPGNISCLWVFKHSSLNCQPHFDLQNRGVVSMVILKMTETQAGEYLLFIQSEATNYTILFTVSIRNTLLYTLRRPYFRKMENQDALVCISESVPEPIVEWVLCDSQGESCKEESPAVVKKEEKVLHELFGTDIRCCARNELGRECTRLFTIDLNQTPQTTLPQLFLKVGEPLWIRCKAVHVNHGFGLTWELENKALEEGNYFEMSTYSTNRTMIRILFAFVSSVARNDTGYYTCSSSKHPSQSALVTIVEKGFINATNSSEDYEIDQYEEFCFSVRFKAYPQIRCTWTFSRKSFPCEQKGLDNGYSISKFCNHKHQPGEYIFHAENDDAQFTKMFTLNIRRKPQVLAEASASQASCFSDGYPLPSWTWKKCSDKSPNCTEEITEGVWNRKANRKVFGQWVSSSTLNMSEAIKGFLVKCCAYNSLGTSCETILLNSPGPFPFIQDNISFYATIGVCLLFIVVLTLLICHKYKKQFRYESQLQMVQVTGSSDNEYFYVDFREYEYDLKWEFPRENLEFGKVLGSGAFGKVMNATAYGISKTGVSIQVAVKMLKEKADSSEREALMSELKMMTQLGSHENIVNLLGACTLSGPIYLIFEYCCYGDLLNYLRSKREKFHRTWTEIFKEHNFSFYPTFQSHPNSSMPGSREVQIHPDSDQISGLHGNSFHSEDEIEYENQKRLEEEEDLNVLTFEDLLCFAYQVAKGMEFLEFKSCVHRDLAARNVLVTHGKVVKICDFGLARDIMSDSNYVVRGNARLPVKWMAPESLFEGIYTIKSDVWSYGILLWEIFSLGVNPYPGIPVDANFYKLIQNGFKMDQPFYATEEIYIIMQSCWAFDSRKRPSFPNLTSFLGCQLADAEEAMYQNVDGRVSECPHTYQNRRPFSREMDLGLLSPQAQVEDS
The experiment in a line: Inhibition of FLT3 (unknown origin).

For assay [16], the system named is BaF3. The experiment in a line: Induction of apoptosis in mouse BaF3 cells harboring CD74-TRKA G667C mutant assessed as viable cells at 0.4 nM incubated 48 hrs by Annexin V-FITC/7-AAD staining based flow cytometric analysis (reference value: 89.60%). The conditions noted are these: read-out: Activity. In kind it is functional.
In assay [17] the target is NT-3 growth factor receptor (Homo sapiens, UniProt Q16288). The experiment in a line: Inhibition of TRKC (unknown origin) using […] peptide as substrate incubated for 1 hr in presence of ATP by FRET based Z'-lyte assay.
NT-3 growth factor receptor, sequence (Q16288 whole entry): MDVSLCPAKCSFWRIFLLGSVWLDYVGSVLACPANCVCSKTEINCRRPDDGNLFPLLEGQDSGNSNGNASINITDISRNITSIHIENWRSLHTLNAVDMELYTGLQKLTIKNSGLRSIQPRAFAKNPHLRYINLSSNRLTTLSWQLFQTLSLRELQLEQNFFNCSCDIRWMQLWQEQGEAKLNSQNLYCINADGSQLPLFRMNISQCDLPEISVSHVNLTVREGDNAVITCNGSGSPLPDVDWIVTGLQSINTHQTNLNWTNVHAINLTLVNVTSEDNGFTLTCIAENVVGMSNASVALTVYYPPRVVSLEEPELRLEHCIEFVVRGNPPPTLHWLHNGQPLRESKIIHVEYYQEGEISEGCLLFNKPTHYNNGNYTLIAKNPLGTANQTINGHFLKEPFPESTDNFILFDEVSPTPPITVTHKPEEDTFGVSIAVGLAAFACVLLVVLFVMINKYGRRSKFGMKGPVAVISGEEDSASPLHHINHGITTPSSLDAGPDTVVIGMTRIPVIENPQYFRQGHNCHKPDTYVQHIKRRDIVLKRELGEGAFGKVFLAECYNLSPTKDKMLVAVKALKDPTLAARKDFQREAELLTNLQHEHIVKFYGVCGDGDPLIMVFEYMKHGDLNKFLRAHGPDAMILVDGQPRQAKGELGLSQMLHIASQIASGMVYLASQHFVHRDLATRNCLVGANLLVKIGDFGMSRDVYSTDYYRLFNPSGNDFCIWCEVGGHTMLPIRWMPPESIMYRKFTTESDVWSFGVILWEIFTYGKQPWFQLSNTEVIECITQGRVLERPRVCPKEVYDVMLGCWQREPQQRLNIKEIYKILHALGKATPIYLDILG
Assay [18] concerns the target BDNF/NT-3 growth factors receptor (Homo sapiens, UniProt Q16620). The experiment in a line: Inhibition of TRKB (unknown origin) using […] peptide as substrate incubated for 1 hr in presence of ATP by FRET based Z'-lyte assay.
Assay [19] concerns BaF3. Kind of assay: cells. As to conditions: Mus musculus, BaF3, 72 h. This is another data set of the same source.
The test system of assay [20] is BaF3. The experiment in a line: cells. The conditions noted are these: Mus musculus, BaF3, 72 h. The source holds these as a separate data set.
Description: Antiproliferative activity against mouse BaF3 cells harbouring CD74-TRKA G595R mutant assessed as inhibition of cell growth incubated for 72 hrs by CCK8 assay
Assay [21] deals with BaF3. The experiment in a line: cells. As to conditions: Mus musculus, BaF3, 72 h. This is another data set of the same source.
Description: Antiproliferative activity against mouse BaF3 cells assessed as inhibition of cell growth incubated for 72 hrs by CCK8 assay
For assay [22], the system named is BaF3. Kind of assay: cells. As to conditions: Mus musculus, BaF3, 72 h. The source holds these as a separate data set.
Description: Antiproliferative activity against mouse BaF3 cells harbouring CD74-TRKA G623R mutant assessed as inhibition of cell growth incubated for 72 hrs by CCK8 assay

BDNF/NT-3 growth factors receptor, sequence (Q16620 whole entry): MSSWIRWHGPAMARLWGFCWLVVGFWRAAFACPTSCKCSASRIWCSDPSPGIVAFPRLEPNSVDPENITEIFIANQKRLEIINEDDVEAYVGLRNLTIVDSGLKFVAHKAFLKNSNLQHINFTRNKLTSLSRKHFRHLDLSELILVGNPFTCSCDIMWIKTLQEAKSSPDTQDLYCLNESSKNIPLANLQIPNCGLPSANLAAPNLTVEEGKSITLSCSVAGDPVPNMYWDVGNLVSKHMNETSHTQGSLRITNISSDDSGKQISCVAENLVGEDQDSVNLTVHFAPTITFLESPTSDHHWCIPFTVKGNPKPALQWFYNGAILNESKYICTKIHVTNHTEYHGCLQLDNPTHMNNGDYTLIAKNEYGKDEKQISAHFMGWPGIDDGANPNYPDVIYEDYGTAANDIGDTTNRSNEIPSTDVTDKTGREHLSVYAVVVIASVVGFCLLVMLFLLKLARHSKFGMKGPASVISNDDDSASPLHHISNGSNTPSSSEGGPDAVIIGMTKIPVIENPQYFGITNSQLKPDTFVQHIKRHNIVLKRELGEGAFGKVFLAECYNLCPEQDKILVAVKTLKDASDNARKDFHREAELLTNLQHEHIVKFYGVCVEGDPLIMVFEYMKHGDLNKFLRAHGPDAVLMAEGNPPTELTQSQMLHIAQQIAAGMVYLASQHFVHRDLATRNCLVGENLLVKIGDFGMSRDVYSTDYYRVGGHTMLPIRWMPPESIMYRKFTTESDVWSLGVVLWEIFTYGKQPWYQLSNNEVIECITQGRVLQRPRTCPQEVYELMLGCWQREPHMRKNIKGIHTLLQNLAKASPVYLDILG
High affinity nerve growth factor receptor (Homo sapiens, UniProt P04629), sequence (P04629 whole entry): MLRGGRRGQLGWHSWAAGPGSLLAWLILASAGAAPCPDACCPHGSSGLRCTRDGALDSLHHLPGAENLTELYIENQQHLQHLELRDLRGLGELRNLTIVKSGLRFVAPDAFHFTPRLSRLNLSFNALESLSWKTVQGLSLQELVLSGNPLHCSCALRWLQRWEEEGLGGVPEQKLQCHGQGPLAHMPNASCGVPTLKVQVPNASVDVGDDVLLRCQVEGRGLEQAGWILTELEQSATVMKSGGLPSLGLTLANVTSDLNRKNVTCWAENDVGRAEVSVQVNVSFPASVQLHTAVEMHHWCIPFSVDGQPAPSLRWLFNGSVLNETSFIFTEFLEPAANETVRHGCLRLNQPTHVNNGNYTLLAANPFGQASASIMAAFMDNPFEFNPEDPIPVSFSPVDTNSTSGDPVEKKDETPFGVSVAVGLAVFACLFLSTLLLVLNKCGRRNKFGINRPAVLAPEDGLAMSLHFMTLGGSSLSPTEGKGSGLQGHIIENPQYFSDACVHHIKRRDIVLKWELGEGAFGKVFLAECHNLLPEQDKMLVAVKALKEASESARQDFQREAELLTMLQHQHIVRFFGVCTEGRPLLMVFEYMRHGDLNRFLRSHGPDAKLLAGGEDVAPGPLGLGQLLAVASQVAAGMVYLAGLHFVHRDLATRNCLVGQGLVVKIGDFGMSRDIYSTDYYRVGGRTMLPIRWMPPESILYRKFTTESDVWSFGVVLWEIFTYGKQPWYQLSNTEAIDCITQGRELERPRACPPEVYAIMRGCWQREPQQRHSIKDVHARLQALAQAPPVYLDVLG

Regarding `C[C@@H]1CCc2ncc(F)cc2[C@H]2CCCN2c2ccn3ncc(c3n2)C(=O)N1` [SELITRECTINIB], the IC50 (commonly the concentration at which inhibition is half-maximal) came to 0.0017 µM in the assay with BaF3 [1], 0.0052 µM with BaF3 [2] and 0.0012 µM in the assay on BaF3 [3].

Turning to `CN1CCN(Cc2ccc(NC(=O)[C@@H]3CCN(c4ccc5ncc(-c6ccccn6)n5n4)C3)cc2C(F)(F)F)CC1`, in the assay with BaF3 [4], the viability at 0.05 µM came to 43%. Also, the IC50 in assay [5] came out at 0.0094 µM; in assay [7], 0.0711 µM; in [10] it was 0.0099 µM; in [13], 0.0033 µM; in assay [15], 0.0013 µM; in assay [17], 0.0043 µM. Further, the viability at 0.5 µM with BaF3 [6] was 60.8%. The viability at 0.01 µM with BaF3 [8] came to 87.6%. The viability at 0.1 µM with BaF3 [9] amounted to 78.1%. Further, in the assay on BaF3 [11], the viability at 0.002 µM is 89.8%. For the same compound, the viability at 0.02 µM in the assay on BaF3 [12] was found to be 87.8%. Besides, the viability at 0.004 µM with BaF3 [14] was 59.9%. In addition, the viability at 0.0004 µM in the assay on BaF3 [16] stood at 89.1%.

In the case of `CN1CCN(Cc2ccc(NC(=O)[C@@H]3CCN(c4ccc5ncc(-c6cccnc6)n5n4)C3)cc2C(F)(F)F)CC1`, the values for the half-maximal inhibitory concentration (IC50) in [17] and in assay [18] were 0.008 µM and 0.0111 µM, respectively.

Regarding `CN1CCN(Cc2ccc(NC(=O)[C@@H]3CCN(c4ccc5ncc(-c6cn[nH]c6)n5n4)C3)cc2C(F)(F)F)CC1`, the IC50 was 0.296 µM with BaF3 [1]; 0.0338 µM in assay [5]; 0.522 µM in the assay on BaF3 [2]; 0.0058 µM in assay [13]; 0.195 µM in the assay with BaF3 [3]; 0.0273 µM in the assay on BaF3 [19]. Also, the IC50 in assay [17] worked out at 0.0078 µM; in [18] it was 0.0138 µM.

As to `CN1CCN(Cc2ccc(NC(=O)[C@@H]3CCN(c4ccc5ncc(-c6ccc(N)nc6)n5n4)C3)cc2C(F)(F)F)CC1`, the figures for the half-inhibitory concentration (IC50) in [5], in assay [13] and in [18] were 0.0167 µM, 0.006 µM and 0.0096 µM, respectively.

Regarding `CN1CCN(Cc2ccc(NC(=O)[C@@H]3CCN(c4ccc5ncc(-c6cnn(CCO)c6)n5n4)C3)cc2C(F)(F)F)CC1`, the half-maximal inhibitory concentration (IC50) was 0.0525 µM in assay [5], 0.0087 µM in assay [13] and 0.0216 µM in assay [18].

For `O=C(Nc1cnn2ccc(N3CCC[C@@H]3c3cc(F)ccc3F)nc12)N1CC[C@H](O)C1` [LAROTRECTINIB], the half-inhibitory concentration (IC50) with BaF3 [1] is 0.0093 µM; with BaF3 [20], more than 1 µM; with BaF3 [2], 0.0297 µM; in the assay on BaF3 [21], more than 2 µM; in the assay with BaF3 [22], more than 1 µM; in the assay on BaF3 [3], 0.0154 µM. The compound further yielded a concentration for half-maximal inhibition (IC50) with BaF3 [19] of 0.284 µM.

Turning to `CN1CCN(Cc2cc(NC(=O)[C@@H]3CCN(c4ccc5ncc(-c6ccccn6)n5n4)C3)cc(C(F)(F)F)c2)CC1`, the half-maximal inhibitory concentration (IC50) was found to be 0.0615 µM with BaF3 [1]; 0.0165 µM in [5]; 0.0518 µM in the assay with BaF3 [2]; 0.0058 µM in assay [13]; 0.0264 µM with BaF3 [3]; 0.0093 µM in the assay with BaF3 [19]. The figures for the half-inhibitory concentration (IC50) in assay [17] and in [18] were 0.0081 µM and 0.0051 µM, respectively.

Take `CN1CCN(Cc2ccc(NC(=O)[C@@H]3CCN(c4ccc5nccn5n4)C3)cc2C(F)(F)F)CC1`: the values for the IC50 in assay [5], in assay [13] and in assay [18] were 0.938 µM, 0.245 µM and more than 1 µM, respectively.

Turning to `Cc1cn(-c2cc(NC(=O)[C@@H]3CCN(c4ccc5ncc(-c6ccccn6)n5n4)C3)cc(C(F)(F)F)c2)cn1`, the IC50 in the assay with BaF3 [1] stood at 0.0291 µM; in assay [5] it was 0.0252 µM; in the assay with BaF3 [2] it was 0.0253 µM; in [13], 0.0131 µM; with BaF3 [3] it was 0.0158 µM; in the assay on BaF3 [19], 0.0018 µM. Besides, the IC50 in [17] stood at 0.0101 µM; in [18], 0.0059 µM.

As for `CN1CCN(Cc2ccc(NC(=O)[C@@H]3CCN(c4ccc5ncc(-c6cnn(C7CCOCC7)c6)n5n4)C3)cc2C(F)(F)F)CC1`, the concentration for half-maximal inhibition (IC50) came out at 0.0355 µM in [5], 0.0132 µM in assay [13] and 0.0268 µM in assay [18].

Regarding `CN1CCN(Cc2cc(NC(=O)[C@H]3CCN(c4ccc5ncc(-c6ccccn6)n5n4)C3)cc(C(F)(F)F)c2)CC1`, the IC50 in the assay with BaF3 [1] is 0.261 µM; in [5], 0.0981 µM; in the assay on BaF3 [2], 0.215 µM; in [13], 0.0352 µM; in the assay on BaF3 [3], 0.141 µM; in the assay with BaF3 [19], 0.0493 µM. For the same compound, the IC50 in assay [17] was 0.0402 µM; in [18], 0.0508 µM.

`Cc1conc1NC(=O)N[C@@H]1CCN(c2ccc3ncc(-c4ccccn4)n3n2)C1`: the IC50 in [5] worked out at 0.241 µM; in [13], 0.0687 µM; in assay [17], 0.0368 µM.

Consider `O=C(Nc1ccc(Cl)c(C(F)(F)F)c1)N[C@@H]1CCN(c2ccc3ncc(-c4ccccn4)n3n2)C1`, for which the half-inhibitory concentration (IC50) stood at 0.695 µM in the assay with BaF3 [1]; 0.0151 µM in assay [5]; 0.508 µM with BaF3 [2]; 0.0457 µM in assay [13]; 0.225 µM in the assay on BaF3 [3]; 0.0044 µM in the assay on BaF3 [19]. The IC50 turned out to be 0.017 µM in assay [17] and 0.0816 µM in [18].
